Log of inhibitory zone data for 1 compound are collected here from ChEMBL document CHEMBL1149238, “A novel mixed-ligand antimycobacterial dimeric copper complex of ciprofloxacin and phenanthroline” (2004).

For this assay, the system named is Mycolicibacterium smegmatis. Description: Antimycobacterial activity was determined against Mycobacterium smegmatis. The class given is functional.

The compound `O=C(O)c1cn(C2CC2)c2cc(N3CCNCC3)c(F)cc2c1=O` [CIPROFLOXACIN] showed a Log of inhibitory zone of 1.28 log mm.
